Reference: patent publication US20140350050A1, “PYRIDINE COMPOUNDS AS INHIBITORS OF KINASE” (TELIGENE LTD., priority 2011, published 2014)
Where two headings read alike, the source gives them in different places.

How the values were obtained:
[1] = PK (pharmacokinetic) study in rat, cassette dosing; format: in vivo; conditions: male, Wistar, plasma
Method: A representative protocol for the PK (pharmacokinetic) is as followed: Animals used were Wistar rat, male and weight about 300-359 grams. Compound 21 and 22 were given either IV or oral to the same animals by cassette dosing. The dose for each compound is 1 mg/kg (volume 5 ml/kg) IV and 2 mg/kg (volume 10 ml/kg) oral. The formulation for IV was in PBS, the pH is adjusted by dilute HCl until compounds were totally dissolved. 0.5% Na-CMC suspension was used for the oral formulation. Sample collection: for IV route, plasma sample were collected at the time point 0.083, 0.25, 0.5, 1, 1.5, 2, 4, 6, 8, 12, 24 h. For oral route, plasma sample were collected at the time point 0.167, 0.33, 0.5, 1, 2, 4, 6, 8, 12, 24 h. Analysis: LC-MS/MS is used to calculate PK parameters: t1/2, tmax, Cmax, Vss and AUC etc.

[2] = tested on: EML4-ALK-BAF3 cell line xenograft; format: in vivo; conditions: Table C, 40 mg/kg oral gavage once daily
From the text: A representative protocol for the in vivo experiment is as followed to establish the subcutaneous EML4-ALK-BAF3 cell line xenograft model in nude mice and to evaluate the in vivo therapeutic efficacy of the compounds: Animals: Male Balb/c nude mice (6˜8 weeks old) were obtained from SLAC Laboratory Animal, Shanghai, China. Animals were maintained under SPF conditions in sterile filter top cages and housed on HEPA-filtered ventilated racks. Animals received sterile rodent chow and water ad libitum. Cell line: BAF3-EML4-ALK stable cell line, the BAF3 cell which could expressed fusion oncogene EML4-ALK. S.c. Xenograft Models in Athymic Mice: Cells for implantation into athymic mice were harvested and pelleted by centrifugation at 1200 r/min for 5 min. Cells were washed once and resuspended in sterile PBS buffer with 5×10^6 in 200 μl. Then cells were implanted s.c. into the right scapular region of each mouse and allowed to grow to 200˜300 mm^3 before the administration of compound. Preparation of the Dose Formulation: each compound was suspensioned in 0.5% CMC-Na. Randomization: When tumor volumes approach 200˜300 mm^3, the mice will be randomized into 5 groups according to the tumor volume. The day will be denoted as D1 and the treatments will be started at this day. Administered: Dose will be administered with oral gavage needle once daily for number of days. Treatment of compounds administered in 0.5% CMC-Na by p.o. gavage was initiated when tumors were 200˜300 mm^3 in volume. Observations: After inoculation, the animals will be checked daily for morbidity and mortality. At the time of routine monitoring, the animals will be checked for any effects of tumor growth and treatments on normal behavior such as mobility, body weight gain/loss (body weights will be measured twice weekly or every other day), eye/hair matting and any other abnormal effect. Death and observed clinical signs will be recorded on the basis of the numbers of animals within each subset. Tumor Size Measurements: Tumor volume was determined by measurement with electronic vernier calipers every 3 days and tumor volume was calculated as the product of its length×width^2×0.5. Effect studies: Tumor volume was expressed on indicated days as the mean tumor volume ±SD. […] Significant differences between the treated versus the control groups (p<0.05) were determined using t test. At study endpoint, after blood collection, mice were practiced euthanasia by cervical dislocation, the tumor tissue was collected first, then abdominal cavity was cut open, liver and spleen were excised, then weight after the gallblader was removed respectively. Organ weight and Organ/body weight ratios between the treated versus the control groups were compared. Ratios was calculated as follows: Ratios=Organ weight/(body weight-tumor weight). Both organ weight and Organ/body weight ratios were also expressed as mean±SD, and significant differences between the treated versus the control groups (p<0.05) were determined using t test.

[3] = target: T1, BAF3-EML4-ALK stable cell line (Homo sapiens, UniProt Q9UM73); experiment: BAF3-EML4-ALK cell assay (MTT cell proliferation); format: cell-based; conditions: 72 hours, read-out: BAF3-EML4-ALK Cell (IC50 grading)
T1 construct: fused on or other part: Q9HC35 (Echinoderm microtubule-associated protein-like 4)
T1 sequence (Q9UM73 whole entry, change not shown, the tested form may be a part): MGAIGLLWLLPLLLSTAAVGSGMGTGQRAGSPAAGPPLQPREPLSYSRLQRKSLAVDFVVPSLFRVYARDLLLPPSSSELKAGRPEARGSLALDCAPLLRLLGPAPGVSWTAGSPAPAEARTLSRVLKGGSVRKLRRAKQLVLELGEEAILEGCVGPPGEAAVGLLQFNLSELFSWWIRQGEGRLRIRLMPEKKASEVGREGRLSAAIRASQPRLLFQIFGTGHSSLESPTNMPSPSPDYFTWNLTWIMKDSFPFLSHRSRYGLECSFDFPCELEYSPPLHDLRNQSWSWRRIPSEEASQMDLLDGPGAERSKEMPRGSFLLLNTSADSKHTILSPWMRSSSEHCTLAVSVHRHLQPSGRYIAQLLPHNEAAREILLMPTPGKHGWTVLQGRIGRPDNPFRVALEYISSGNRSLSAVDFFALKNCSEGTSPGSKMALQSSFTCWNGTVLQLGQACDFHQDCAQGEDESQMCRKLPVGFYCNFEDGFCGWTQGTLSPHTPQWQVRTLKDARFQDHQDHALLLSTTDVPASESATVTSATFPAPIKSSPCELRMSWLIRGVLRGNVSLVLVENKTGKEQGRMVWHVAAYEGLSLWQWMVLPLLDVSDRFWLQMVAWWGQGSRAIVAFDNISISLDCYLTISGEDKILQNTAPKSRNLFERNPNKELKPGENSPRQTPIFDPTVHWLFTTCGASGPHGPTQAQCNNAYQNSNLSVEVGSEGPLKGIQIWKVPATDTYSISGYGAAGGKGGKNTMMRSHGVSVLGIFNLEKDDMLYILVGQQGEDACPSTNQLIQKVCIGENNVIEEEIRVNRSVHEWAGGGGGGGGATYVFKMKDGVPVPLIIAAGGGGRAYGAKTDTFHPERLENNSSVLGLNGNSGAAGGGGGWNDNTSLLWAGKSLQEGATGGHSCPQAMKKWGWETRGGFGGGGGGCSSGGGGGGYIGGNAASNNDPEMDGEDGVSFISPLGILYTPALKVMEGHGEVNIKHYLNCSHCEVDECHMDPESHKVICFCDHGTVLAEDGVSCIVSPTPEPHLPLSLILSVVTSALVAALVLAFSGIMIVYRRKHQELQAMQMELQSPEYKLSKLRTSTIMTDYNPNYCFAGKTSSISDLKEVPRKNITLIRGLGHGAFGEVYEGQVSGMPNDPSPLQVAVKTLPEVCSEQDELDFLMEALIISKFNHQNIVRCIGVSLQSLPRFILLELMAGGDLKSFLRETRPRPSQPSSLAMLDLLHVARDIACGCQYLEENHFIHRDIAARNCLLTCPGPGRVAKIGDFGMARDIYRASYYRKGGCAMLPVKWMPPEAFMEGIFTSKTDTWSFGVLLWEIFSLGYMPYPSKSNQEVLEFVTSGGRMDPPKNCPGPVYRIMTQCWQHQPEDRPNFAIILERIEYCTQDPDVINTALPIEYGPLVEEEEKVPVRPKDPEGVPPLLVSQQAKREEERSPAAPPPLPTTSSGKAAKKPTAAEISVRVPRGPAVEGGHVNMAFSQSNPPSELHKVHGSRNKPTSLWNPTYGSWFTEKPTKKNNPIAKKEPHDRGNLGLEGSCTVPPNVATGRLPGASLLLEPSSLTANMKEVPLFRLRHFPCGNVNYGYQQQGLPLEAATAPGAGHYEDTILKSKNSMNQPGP
Method: BAF3-EML4-ALK Cell Assay:
A method of establishing BAF3-EML4-ALK stable cell line: Transfer 5×10^6 BAF3 cells to a new tube, pellet the cells, and remove PBS by aspiration.; Resuspend the cells in 1 ml electroporation buffer, this provides 5×10^6 of cells; Transfer 200 μl of cell suspension to EP tube, add 5 ug DNA, flip and place it on ice for 10 min; Pipet the 200 μl cell suspension into 2 mm electroporation cuvette; Place the cuvette into shockpod, close the lid, and press the PULSE button; Set parameters: Expentional decay pulse: VOL=200 V; CAP=900 uF, RES=1000Ω; Transfer all cells from electroporation cuvette to 6 well plate, adding 2 ml DMEMF12 containing 5 ng/ml IL3, 24 h later, replace the medium with DMEM F12 containing 2 μg/ml blasticidin S and 5 ng/ml IL3, maintain for 3 days; change the medium with DMEM F12 containing 2 ug/ml blasticidin S and 2.5 ng/ml IL3, maintain 3 days; change the medium with DMEM F12 containing 2 ug/Ml blasticidin S, maintain to culture.
MTT Cell proliferation assay: 5×10^3 per well cell with 100 μl medium was seeded in 96-well plate; 24 hours later, 100 μl fresh medium with various concentration of compounds; After the cells were treated by compounds for 72 hours, add 20 μl MTT (5 mg/ml) into each wells; The plate is incubated at 37° C. for 4 hours; Centrifuge the plate at 800 g for 10 mins, Aspirated the medium, add 150 μl DMSO into each well. Shake plates gently for 10 mins, Measure the absorbance at 570 nm on plate reader; IR=(WC−WT)/WC.

AUC(0-inf) ([1]; IV cassette 1 mg/kg): 337 ng·h/mL
AUC(0-t) ([1]; IV cassette 1 mg/kg): 336 ng·h/mL
Cmax ([1]; IV cassette 1 mg/kg): 259 ng/mL
MRT ([1]; IV cassette 1 mg/kg): 3.11 h
Tmax ([1]; IV cassette 1 mg/kg): 0.083 h
clearance ([1]; IV cassette 1 mg/kg): 49.5 mL/min/kg
half-life ([1]; IV cassette 1 mg/kg): 3.04 h
AUC(0-inf) ([1]; oral cassette 2 mg/kg): 146 ng·h/mL
AUC(0-t) ([1]; oral cassette 2 mg/kg): 140 ng·h/mL
Cmax ([1]; oral cassette 2 mg/kg): 21 ng/mL
MRT ([1]; oral cassette 2 mg/kg): 5.28 h
Tmax ([1]; oral cassette 2 mg/kg): 4 h
half-life ([1]; oral cassette 2 mg/kg): 3.1 h
bioavailability ([1]; oral cassette 2 mg/kg vs IV 1 mg/kg, read-out: F (bioavailability)): 20.8%
GI50 [3]: ≤ 100 nM
SMILES: [2H]C([2H])([2H])C([2H])([2H])N1CCC(n2cc(-c3cnc(N)c(O[C@H](C)c4c(Cl)ccc(F)c4Cl)c3)cn2)CC1 [Compound 22, (R)-3-(1-(2,6-dichloro-3-fluorophenyl)ethoxy)-5-(1-(1-d5-ethylpiperidin-4-yl)-1H-pyrazol-4-yl)pyridin-2-amine]
Tumor growth inhibition (TGI, %) ([2]; day 2): 22.58%
Tumor growth inhibition (TGI, %) ([2]; day 5): 53.72%
Tumor growth inhibition (TGI, %) ([2]; day 8): 66.61%
Tumor growth inhibition (TGI, %) ([2]; day 11): 82.97%
Tumor growth inhibition (TGI, %) ([2]; day 14): 87.64%
